Measurements published in PubChem BioAssay AID1919007 (Molecular Pharmacology Branch, DTP, NCI, 2023).

Test system: A498 complex spheroids with HUVEC/MSC, growth
Assay: Anticancer human tumor A498 cell line growth inhibition [AhR];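 note: seven day exposure starting three days after spheroid seeding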;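 for viability, T/C: luminescence signal used as a surrogate for viable cells; luminescence viability scaled so 100% equals DMSO vehicle wells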
Settings: for IC50: curve of first compound; for viability, T/C: stronger effect = lower value
Source text: Multicellular complex tumor spheroid response to aryl hydrocarbon receptor antagonists in combination with a variety of drugs and investigational agents in selected tumor cell lines
The current study was undertaken to assess response to aryl hydrocarbon receptor antagonists in combination with standard-of-care drugs and investigational agents in solid tumor complex spheroid models. Complex spheroids include a stromal component modeled by human endothelial cells (HUVEC) and fibroblasts modeled by human mesenchymal stem cells (MSCs). The concentration ranges selected for each drug and investigational agent were based upon clinically achievable concentrations if the clinical Cmax of the agent was known.
Compounds. The drugs and investigational agents: BAY 2416964 (NSC825713), GNF351 (NSC835774), CH-223191 (NSC835775), CPI-455 (NSC825282), aza-TdCyd (NSC777586), decitabine (NSC127716), belinostat (NSC758774), entinostat (NSC756642), pevonedistat (NSC761192), tazemetostat (NSC777109), talazoparib (NSC765396), olaparib (NSC753686), selinexor (NSC780203), nedisertib (M3814, NSC802822), bortezomib (NSC756655), venetoclax (NSC766270), doxorubicin (NSC123127), elimusertib (BAY189344, NSC800525), ceralasertib (AZD6738, NSC777638), TAK-243 (NSC785004), alisertib (NSC759677), etoposide (NSC141540), topotecan (NSC609699), eribulin (NSC707389), gemcitabine (NSC613327), carboplatin (NSC241240), cisplatin (NSC119875), and SN-38 (NSC673596) were obtained from the National Cancer Institute (NCI) Developmental Therapeutics Program Chemical Repository (32). The FDA-approved anticancer drug set is available from the Developmental Therapeutics Program at https://dtp.cancer.gov/organization/dscb/obtaining/available plates.htm. […] The stock solutions were prepared in dimethyl sulfoxide (DMSO, Sigma-Aldrich, St. Louis, MO, cat. D2650), except for the platinum compounds which were prepared in saline (Quality Biological, Gaithersburg, MD, cat. 114-055-101), at 800-fold the tested concentration and stored at -70 degrees C prior to their use. All drugs and investigational agents were tested over a range starting from a high concentration at or near the clinical Cmax and decreasing in half-log increments. If the clinical Cmax for an agent had not been determined, the highest concentration tested was 10 microM (Table 1).
Cell Culture. All cells were maintained in an incubator at 37 degrees C and 5% CO2 with 95% humidity. The PDC lines were cultured according to standard operating procedures established by the NCI PDMR (https://pdmr.cancer.gov). Briefly, all PDCs were thawed and cultured in Matrigel-coated flasks prepared with a working solution of 1X Ham's F-12 nutrient mix, without supplementation (Invitrogen, Waltham, MA, cat. 11765054), 100 U/mL penicillin-streptomycin (Invitrogen, cat. 15140122), and 2.5% Matrigel (Corning Inc., Corning, NY, cat. 354248) for the first three passages. All PDCs were cultured in complete DMEM/F-12 media containing advanced DMEM/F-12 (Invitrogen, cat. 12634028), 4.9% defined fetal bovine serum, heat inactivated (HyClone Laboratories Inc., Logan, UT, cat. SH30070.03HI), 389 ng/mL hydrocortisone (Sigma-Aldrich, cat. H4001), 9.7 ng/mL human EGF recombinant protein (Invitrogen, cat. PHG0313), 23.4 microg/mL adenine (Sigma-Aldrich, cat. A2786), 97.3 U/mL penicillin-streptomycin (Invitrogen, cat. 15140122), 1.9 mM L-glutamine (Invitrogen, cat. 25030081), and 9.7 microM Y-27632 dihydrochloride (Tocris Bioscience, Bristol, United Kingdom, cat. 1254). The PDCs were cultured in complete DMEM/F12 media without 10 microM Y-27632 dihydrochloride for at least two passages prior to the screen. The established cell lines NCI-H1341 and […] were cultured in DMEM/F-12, HEPES (Invitrogen, cat. 11330032), 5% defined fetal bovine serum (HyClone Laboratories Inc., cat. SH30070.03), ITS premix universal culture supplement [insulin (5 microg/mL), transferrin (5 microg/mL), and selenious acid (5 ng/mL)] […]

[1] = second compound 0.1 µM, first compound 0.0316 µM
[2] = second compound 0.1 µM, first compound 0.1 µM
[3] = second compound 0.316 µM, first compound 0.0316 µM
[4] = second compound 0.316 µM, first compound 0.1 µM
[5] = second compound 1 µM, first compound 0.0316 µM
[6] = second compound 1 µM, first compound 0.1 µM
[7] = second compound 3.16 µM, first compound 0.0316 µM
[8] = second compound 3.16 µM, first compound 0.1 µM
[9] = second compound 10 µM, first compound 0.0316 µM
[10] = second compound 10 µM, first compound 0.1 µM

Structure (SMILES): Cn1ncnc1C1c2n[nH]c(=O)c3cc(F)cc(c23)NC1c1ccc(F)cc1 (stereo not given) + Cc1cncc(-c2nc(NCCc3c[nH]c4ccccc34)c3ncn(C(C)C)c3n2)c1
- IC50 (second compound 0.1 µM): > 0.1 µM
- IC50 (second compound 0.316 µM): > 0.1 µM
- IC50 (second compound 1 µM): > 0.1 µM
- IC50 (second compound 3.16 µM): > 0.1 µM
- IC50 (second compound 10 µM): < 0.000316 µM
- viability, T/C (second compound 0.1 µM, first compound 0.000316 µM): 96.5%
- viability, T/C (second compound 0.1 µM, first compound 0.001 µM): 96.6%
- viability, T/C (second compound 0.1 µM, first compound 0.00316 µM): 96.6%
- viability, T/C (second compound 0.1 µM, first compound 0.01 µM): 89%
- viability, T/C [1]: 87%
- viability, T/C [2]: 94.1%
- viability, T/C (second compound 0.316 µM, first compound 0.000316 µM): 97.1%
- viability, T/C (second compound 0.316 µM, first compound 0.001 µM): 99.2%
- viability, T/C (second compound 0.316 µM, first compound 0.00316 µM): 92.9%
- viability, T/C (second compound 0.316 µM, first compound 0.01 µM): 92.3%
- viability, T/C [3]: 95.2%
- viability, T/C [4]: 92.3%
- viability, T/C (second compound 1 µM, first compound 0.000316 µM): 88.4%
- viability, T/C (second compound 1 µM, first compound 0.001 µM): 98.9%
- viability, T/C (second compound 1 µM, first compound 0.00316 µM): 91.2%
- viability, T/C (second compound 1 µM, first compound 0.01 µM): 84.4%
- viability, T/C [5]: 85.5%
- viability, T/C [6]: 89.8%
- viability, T/C (second compound 3.16 µM, first compound 0.000316 µM): 60.6%
- viability, T/C (second compound 3.16 µM, first compound 0.001 µM): 63.6%
- viability, T/C (second compound 3.16 µM, first compound 0.00316 µM): 65%
- viability, T/C (second compound 3.16 µM, first compound 0.01 µM): 70.1%
- viability, T/C [7]: 59.8%
- viability, T/C [8]: 67.8%
- viability, T/C (second compound 10 µM, first compound 0.000316 µM): 5.06%
- viability, T/C (second compound 10 µM, first compound 0.001 µM): 6.23%
- viability, T/C (second compound 10 µM, first compound 0.00316 µM): 6.28%
- viability, T/C (second compound 10 µM, first compound 0.01 µM): 7.11%
- viability, T/C [9]: 6.12%
- viability, T/C [10]: 8.13%

Structure (SMILES): O=C(c1cc(Cc2n[nH]c(=O)c3ccccc23)ccc1F)N1CCN(C(=O)C2CC2)CC1 + Cc1ccccc1N=Nc1ccc(NC(=O)c2ccnn2C)c(C)c1
- IC50 (second compound 0.1 µM): > 10 µM
- IC50 (second compound 0.316 µM): > 10 µM
- IC50 (second compound 1 µM): > 10 µM
- IC50 (second compound 3.16 µM): > 10 µM
- IC50 (second compound 10 µM): > 10 µM
- viability, T/C [1]: 90.1%
- viability, T/C [2]: 95.2%
- viability, T/C (second compound 0.1 µM, first compound 0.316 µM): 90.2%
- viability, T/C (second compound 0.1 µM, first compound 1 µM): 91.9%
- viability, T/C (second compound 0.1 µM, first compound 3.16 µM): 92.6%
- viability, T/C (second compound 0.1 µM, first compound 10 µM): 83.5%
- viability, T/C [3]: 96.3%
- viability, T/C [4]: 95.9%
- viability, T/C (second compound 0.316 µM, first compound 0.316 µM): 95.2%
- viability, T/C (second compound 0.316 µM, first compound 1 µM): 95.1%
- viability, T/C (second compound 0.316 µM, first compound 3.16 µM): 88.9%
- viability, T/C (second compound 0.316 µM, first compound 10 µM): 90.4%
- viability, T/C [5]: 84.6%
- viability, T/C [6]: 95.7%
- viability, T/C (second compound 1 µM, first compound 0.316 µM): 91.5%
- viability, T/C (second compound 1 µM, first compound 1 µM): 81%
- viability, T/C (second compound 1 µM, first compound 3.16 µM): 85.7%
- viability, T/C (second compound 1 µM, first compound 10 µM): 75.9%
- viability, T/C [7]: 79.5%
- viability, T/C [8]: 92.7%
- viability, T/C (second compound 3.16 µM, first compound 0.316 µM): 87.6%
- viability, T/C (second compound 3.16 µM, first compound 1 µM): 85.5%
- viability, T/C (second compound 3.16 µM, first compound 3.16 µM): 76.6%
- viability, T/C (second compound 3.16 µM, first compound 10 µM): 75.8%
- viability, T/C [9]: 87.3%
- viability, T/C [10]: 83.4%
- viability, T/C (second compound 10 µM, first compound 0.316 µM): 80.3%
- viability, T/C (second compound 10 µM, first compound 1 µM): 86.5%
- viability, T/C (second compound 10 µM, first compound 3.16 µM): 75.9%
- viability, T/C (second compound 10 µM, first compound 10 µM): 70.6%

Structure (SMILES): CCc1c2c(nc3ccc(O)cc13)-c1cc3c(c(=O)n1C2)COC(=O)[C@]3(O)CC + Cc1cncc(-c2nc(NCCc3c[nH]c4ccccc34)c3ncn(C(C)C)c3n2)c1
- IC50 (second compound 0.1 µM): 0.0328 µM
- IC50 (second compound 0.316 µM): 0.0337 µM
- IC50 (second compound 1 µM): 0.0236 µM
- IC50 (second compound 3.16 µM): 0.014 µM
- IC50 (second compound 10 µM): < 0.000949 µM
- viability, T/C (second compound 0.1 µM, first compound 0.000949 µM): 78.1%
- viability, T/C (second compound 0.1 µM, first compound 0.003 µM): 81.4%
- viability, T/C (second compound 0.1 µM, first compound 0.00949 µM): 70.2%
- viability, T/C (second compound 0.1 µM, first compound 0.03 µM): 51%
- viability, T/C (second compound 0.1 µM, first compound 0.0949 µM): 39.1%
- viability, T/C (second compound 0.1 µM, first compound 0.3 µM): 35.3%
- viability, T/C (second compound 0.316 µM, first compound 0.000949 µM): 85.7%
- viability, T/C (second compound 0.316 µM, first compound 0.003 µM): 76%
- viability, T/C (second compound 0.316 µM, first compound 0.00949 µM): 67.1%
- viability, T/C (second compound 0.316 µM, first compound 0.03 µM): 52.7%
- viability, T/C (second compound 0.316 µM, first compound 0.0949 µM): 36.7%
- viability, T/C (second compound 0.316 µM, first compound 0.3 µM): 35.2%
- viability, T/C (second compound 1 µM, first compound 0.000949 µM): 77.1%
- viability, T/C (second compound 1 µM, first compound 0.003 µM): 72.8%
- viability, T/C (second compound 1 µM, first compound 0.00949 µM): 66.8%
- viability, T/C (second compound 1 µM, first compound 0.03 µM): 45.4%
- viability, T/C (second compound 1 µM, first compound 0.0949 µM): 32.4%
- viability, T/C (second compound 1 µM, first compound 0.3 µM): 29.1%
- viability, T/C (second compound 3.16 µM, first compound 0.000949 µM): 50.7%
- viability, T/C (second compound 3.16 µM, first compound 0.003 µM): 53.5%
- viability, T/C (second compound 3.16 µM, first compound 0.00949 µM): 58.1%
- viability, T/C (second compound 3.16 µM, first compound 0.03 µM): 42%
- viability, T/C (second compound 3.16 µM, first compound 0.0949 µM): 29.1%
- viability, T/C (second compound 3.16 µM, first compound 0.3 µM): 26.3%
- viability, T/C (second compound 10 µM, first compound 0.000949 µM): 5.42%
- viability, T/C (second compound 10 µM, first compound 0.003 µM): 4.3%
- viability, T/C (second compound 10 µM, first compound 0.00949 µM): 6.41%
- viability, T/C (second compound 10 µM, first compound 0.03 µM): 7.12%
- viability, T/C (second compound 10 µM, first compound 0.0949 µM): 5.73%
- viability, T/C (second compound 10 µM, first compound 0.3 µM): 4.65%
